Measured values: US20160045505A1, “COMPOUNDS AND COMPOSITIONS FOR THE TREATMENT OF PARASITIC DISEASES” (NOVARTIS AG, priority 2013, published 2016)
Like-named read-outs stand apart in the source and are kept apart here.

How the values were obtained:
[1] = tested on: Trypanosoma cruzi amastigotes (Tulahuen strain expressing Lac-Z) cultured in 3T3 fibroblast cells; experiment: microbe, parasite or virus in culture; type: cell-based; details: Trypanosoma cruzi, TULAHUEN, Fibroblast, T. cruzi amastigotes in 3T3 fibroblast cells; read-out: T cruzi EC50
[2] = tested on: Leishmania donovani axenic amastigote parasites; experiment: Leishmania donovani axenic amastigote proliferation assay (Cell TiterGlo luminescence, 2 day incubation); type: cell-based; details: read-out: L. donovani amastigotes EC50
[3] = tested on: Trypanosoma brucei Lister 427 strain, bloodstream form; experiment: Assay for proliferation of kinetoplastid parasite Trypanosoma brucei (Cell Titer Glo, 48 hours); type: cell-based; details: T. brucei Lister 427 bloodstream form, read-out: T. brucei EC50
From the text: Assay for Proliferation of Kinetoplastid Parasite Trypanosoma brucei.
The proliferation is quantified by the addition of Cell Titer Glo (Promega®) a luminescent cell viability assay that measures the number of viable cells in culture based on the quantification of cellular ATP amount, which is an indicator of metabolically active cells.
The following assay illustrates the invention without in any way limiting the scope of the invention. This parasite proliferation assay measures the increase in parasite growth using an assay that measures ATP activity, Cell Titer Glo®.
Trypanosoma brucei Lister 427 strain is grown in HMI-9 Trypanosome media for T. brucei bloodstream form. 30 μl of HMI-9 media is dispensed into 384 well assay plates. 200 nl of compounds of the invention (in DMSO), including anti-trypanosome controls (Pentamidine and suramin), are then transferred into the assay plates, as well as DMSO alone to serve as a negative control for inhibition. Then 25 μl of a suspension of T. brucei culture in HMI-9 media is dispensed into the assay plates. The final concentration of parasites in culture corresponds to 1.7% of 0.5 uM ATP activity with Cell Titer Glo® in HMI-9 media. The plates are placed in a 37° C. incubator for 48 hours in an atmospheric environment containing 5% CO2. 40 μl of Cell Titer Glo® is dispensed into the plates. The plates are then read for luminescence. The percentage inhibition of 50%, EC50, is calculated for each compound.

[4] = tested on: L. donovani HU3 strain in mouse peritoneal macrophages; experiment: Assay for proliferation of Leishmania parasites in infected mouse peritoneal macrophages (SybrGreen staining, high-content imaging, 5 days); type: cell-based, Leishmania donovani; details: L. donovani in mouse peritoneal macrophages, read-out: L. donovani Macrophage EC50
[5] = Leishmania donovani, L. donovani axenic amastigotes
[6] = Leishmania donovani, Peritoneal macrophage
[7] = Leishmania donovani, axenic amastigotes, inhibition of proliferation
[8] = Leishmania donovani, Peritoneal macrophage, inhibition of proliferation
[9] = Trypanosoma brucei, inhibition of proliferation

Cc1nc(C)c(C(=O)Nc2ccc(F)c(-c3cn4cc(C5CCN(CCO)CC5)cnc4n3)c2)o1 [Compound 541]
EC50 [1]: > 20000 nM | EC50 [2, 5]: > 25000 nM | EC50 ([3]; Trypanosoma brucei): 9920 nM

O=C(Nc1cnc2nc(-c3cc(NC(=O)N4CCCC4)ccc3F)cn2c1)OCc1ccccc1 [Compound 512, benzyl (2-(2-fluoro-5-(pyrrolidine-1-carboxamido)phenyl)imidazo[1,2-a]pyrimidin-6-yl)carbamate]
EC50 [2, 5]: 211 nM | EC50 [4, 6]: 2990 nM | EC50 ([3]; Trypanosoma brucei): 76 nM

CC(C)OC(=O)Nc1cnc2nc(-c3cccc(NC(=O)N(C)C)c3)cn2c1 [Compound 20]
EC50 [2, 7]: 13400 nM | EC50 [4, 8]: 7900 nM | EC50 [3, 9]: 2000 nM

CN1CCN(C(=O)Nc2ccc(F)c(-c3cn4cc(Br)cnc4n3)c2)CC1 [Compound 516]
EC50 [2, 5]: > 25000 nM | EC50 [4, 6]: 21000 nM | EC50 ([3]; Trypanosoma brucei): > 50000 nM

COCCOC(=O)Nc1ccc(Cl)c(-c2cn3cc(-c4ccccc4)cnc3n2)c1 [Compound 35]
EC50 [2, 7]: 730 nM | EC50 [4, 8]: 870 nM | EC50 [3, 9]: 1120 nM

CCN(C)C(=O)Nc1cccc(-c2cn3cc(NC(=O)OC(C)C)cnc3n2)c1 [Compound 6]
EC50 [2, 7]: 22300 nM | EC50 [4, 8]: 9200 nM | EC50 [3, 9]: 664 nM

CC(C)c1cnc2nc(-c3cc(N)ccc3F)cn2c1 [Compound 584, 4-fluoro-3-(6-isopropylimidazo[1,2-a]pyrimidin-2-yl)aniline]
EC50 [2, 5]: > 25000 nM | EC50 [4, 6]: 2270 nM | EC50 ([3]; Trypanosoma brucei): > 50000 nM

Cc1nc(C)c(C(=O)Nc2ccc(F)c(-c3cn4cc(CC(F)(F)F)cnc4n3)c2)o1 [Compound 575, N-(4-fluoro-3-(6-(2,2,2-trifluoroethyl)imidazo[1,2-a]pyrimidin-2-yl)phenyl)-2,4-dimethyloxazole-5-carboxamide]
EC50 [1]: 52 nM | EC50 [2, 5]: 78 nM | EC50 ([3]; Trypanosoma brucei): 22 nM

CN(CC(F)(F)F)C(=O)Nc1ccc(F)c(-c2cn3cc(Br)cnc3n2)c1 [Compound 586, 3-(3-(6-bromoimidazo[1,2-a]pyrimidin-2-yl)-4-fluorophenyl)-1-methyl-1-(2,2,2-trifluoroethyl)urea]
EC50 [2, 5]: 552 nM | EC50 [4, 6]: 4000 nM | EC50 ([3]; Trypanosoma brucei): 59 nM

Cc1ccc(C(=O)Nc2cccc(-c3cn4cc(NC(=O)OC(C)C)cnc4n3)c2)o1 [Compound 13]
EC50 [2, 7]: 1720 nM | EC50 [4, 8]: 810 nM | EC50 [3, 9]: 181 nM

COC(=O)Nc1ccc(F)c(-c2cn3cc(Br)cnc3n2)c1 [Compound 517]
EC50 [2, 5]: 4590 nM | EC50 [4, 6]: > 50000 nM | EC50 ([3]; Trypanosoma brucei): 1430 nM

CC(=O)Nc1ccc(F)c(-c2cn3cc(NC(C)=O)cnc3n2)c1 [Compound 567, N-(2-(5-acetamido-2-fluorophenyl)imidazo[1,2-a]pyrimidin-6-yl)acetamide]
EC50 [2, 5]: > 25000 nM | EC50 [4, 6]: > 50000 nM | EC50 ([3]; Trypanosoma brucei): 12100 nM

Cc1cccnc1-c1cnc2nc(-c3cc(NC(=O)N4CC[C@@H](F)C4)ccc3F)cn2c1 [Compound 410]
EC50 [2, 5]: 22 nM | EC50 [4, 6]: 65 nM | EC50 ([3]; Trypanosoma brucei): 17 nM

COCCOC(=O)Nc1ccc(Cl)c(-c2cn3cc(-c4ccsc4)cnc3n2)c1 [Compound 34]
EC50 [2, 7]: 258 nM | EC50 [4, 8]: 750 nM | EC50 [3, 9]: 492 nM

CC(C)OC(=O)Nc1cnc2nc(-c3cc(NC(=O)N4CCC4)ccc3F)cn2c1 [Compound 226]
EC50 [2, 7]: 42 nM | EC50 [4, 8]: 384 nM | EC50 [3, 9]: 37 nM

O=C(Nc1ccc(F)c(-c2cn3cc(F)cnc3n2)c1)N1CCCC1 [Compound 514]
EC50 [2, 5]: 641 nM | EC50 [4, 6]: 1640 nM | EC50 ([3]; Trypanosoma brucei): 84 nM

CC(C)Nc1ccc(F)c(-c2cn3cc(NC(=O)OC(C)C)cnc3n2)c1 [Compound 523]
EC50 [2, 5]: > 25000 nM | EC50 [4, 6]: 37700 nM | EC50 ([3]; Trypanosoma brucei): > 50000 nM

CS(=O)(=O)Nc1ccc(F)c(-c2cn3cc(Br)cnc3n2)c1 [Compound 316, N-(3-(6-bromoimidazo[1,2-a]pyrimidin-2-yl)-4-Fluorophenyl)methanesulfonamide]
EC50 [2, 7]: > 25000 nM | EC50 [4, 8]: > 50000 nM | EC50 [3, 9]: > 50000 nM

O=C(Nc1ccc(Cl)c(-c2cn3cc(-c4ccc(F)cc4)cnc3n2)c1)N1CCCC1 [Compound 25]
EC50 [2, 7]: 54 nM | EC50 [4, 8]: 100 nM | EC50 [3, 9]: 27.5 nM

CCOC(=O)Nc1ccc(Cl)c(-c2cn3cc(-c4ccc(NC)cc4)cnc3n2)c1 [Compound 37]
EC50 [2, 7]: 610 nM | EC50 [4, 8]: 3010 nM | EC50 [3, 9]: 197 nM

CC(C)OC(=O)Nc1cnc2nc(-c3cc(NC(=O)N4CCC(F)(F)C4)ccc3Cl)cn2c1 [Compound 4, isopropyl (2-(2-chloro-5-(3,3-difluoropyrrolidine-1-carboxamido)phenyl)imidazo[1,2-a]pyrimidin-6-yl)carbamate]
EC50 [2, 7]: 1340 nM | EC50 [4, 8]: 2220 nM | EC50 [3, 9]: 2360 nM

COCCN1CCC(c2cnc3nc(-c4cc(NC(=O)c5oc(C)nc5C)ccc4F)cn3c2)CC1 [Compound 540]
EC50 [1]: 1330 nM | EC50 [2, 5]: > 25000 nM | EC50 ([3]; Trypanosoma brucei): 868 nM

COCCOC(=O)Nc1ccc(Cl)c(-c2cn3cc(-c4ccc(NC(=O)OC)cc4)cnc3n2)c1 [Compound 32, 2-methoxyethyl N-[4-chloro-3-(6-{4-[(methoxycarbonyl)amino]phenyl}imidazo[1,2-a]pyrimidin-2-yl)phenyl]carbamate]
EC50 [2, 7]: 118 nM | EC50 [4, 8]: 330 nM | EC50 [3, 9]: 186 nM

CON(C)C(=O)Nc1ccc(F)c(-c2cn3cc(NC(=O)OC(C)C)cnc3n2)c1 [Compound 221]
EC50 [2, 7]: 249 nM | EC50 [4, 8]: 1060 nM | EC50 [3, 9]: 177 nM

Cc1nc(C)c(C(=O)Nc2ccc(F)c(-c3cn4cc(C5CCN(C(=O)CO)CC5)cnc4n3)c2)o1 [Compound 542, N-(4-fluoro-3-(6-(1-(2-hydroxyacetyl)piperidin-4-yl)imidazo[1,2-a]pyrimidin-2-yl)phenyl)-2,4-dimethyloxazole-5-carboxamide]
EC50 [1]: 8060 nM | EC50 [2, 5]: 450 nM | EC50 ([3]; Trypanosoma brucei): 467 nM

COC(=O)Nc1ccc(-c2cnc3nc(-c4cc(NC(=O)c5ccc(C)o5)ccc4Cl)cn3c2)cc1 [Compound 27, methyl (4-(2-(2-chloro-5-(5-methylfuran-2-carboxamido)phenyl)imidazo[1,2-a]pyrimidin-6-yl)phenyl)carbamate]
EC50 [2, 7]: 35 nM | EC50 [4, 8]: 110 nM | EC50 [3, 9]: 589 nM

Cc1ccc(C(=O)Nc2ccc(Cl)c(-c3cn4cc(-c5ccccc5)cnc4n3)c2)o1 [Compound 31, N-(4-chloro-3-(6-phenylimidazo[1,2-a]pyrimidin-2-yl)phenyl)-5-methylfuran-2-carboxamide]
EC50 [2, 7]: 169 nM | EC50 [4, 8]: 243 nM | EC50 [3, 9]: 67.7 nM

CON(C)C(=O)Nc1cccc(-c2cn3cc(NC(=O)OC(C)C)cnc3n2)c1 [Compound 215]
EC50 ([2]; axenic amastigotes, inhibition of proliferation): 533 nM | EC50 ([4]; inhibition of proliferation): 1320 nM | EC50 ([3]; inhibition of proliferation): 181 nM

CN(C(=O)N1CCCC1)c1ccc(F)c(-c2cn3cc(N)cnc3n2)c1 [Compound 558]
EC50 [2, 5]: > 25000 nM | EC50 [4, 6]: > 50000 nM | EC50 ([3]; Trypanosoma brucei): 17200 nM

CC(C)OC(=O)Nc1cnc2nc(-c3cc(NC(=O)N4CC(C#N)C4)ccc3F)cn2c1 [Compound 290]
EC50 [2, 7]: 3140 nM | EC50 [4, 8]: > 45700 nM | EC50 [3, 9]: 12600 nM

Cc1nc(C)c(C(=O)Nc2ccc(F)c(-c3cn4cc(-c5sc(C)nc5C)cnc4n3)c2)o1 [Compound 365]
EC50 [2, 7]: 102 nM | EC50 [4, 8]: 200 nM | EC50 [3, 9]: 59 nM

CC(C)OC(=O)Nc1cnc2nc(-c3cc(NC(=O)N4CC(O)C4)ccc3F)cn2c1 [Compound 288]
EC50 [2, 7]: 7690 nM | EC50 [4, 8]: > 50000 nM | EC50 [3, 9]: 33800 nM

COC(=O)Nc1ccc(-c2cnc3nc(-c4cc(NC(=O)N5CCCC5)ccc4Cl)cn3c2)cc1 [Compound 24, methyl (4-(2-(2-chloro-5-(pyrrolidine-1-carboxamido)phenyl)imidazo[1,2-a]pyrimidin-6-yl)phenyl)carbamate]
EC50 [2, 7]: 19.9 nM | EC50 [4, 8]: 57 nM | EC50 [3, 9]: 8.45 nM

Cc1nc(C)c(C(=O)Nc2cccc(-c3cn4cc(NC(=O)OC(C)C)cnc4n3)c2)o1 [Compound 22]
EC50 [2, 7]: 1240 nM | EC50 [4, 8]: 530 nM | EC50 [3, 9]: 384 nM

CCN(C)C(=O)Nc1ccc(F)c(-c2cn3cc(NC(=O)OC(C)C)cnc3n2)c1 [Compound 9]
EC50 [2, 7]: 2480 nM | EC50 [4, 8]: 1320 nM | EC50 [3, 9]: 191 nM

Cc1nc(C)c(C(=O)Nc2ccc(F)c(-c3cn4cc(C5CC5)cnc4n3)c2)o1 [Compound 339, N-(3-(6-cyclopropylimidazo[1,2-a]pyrimidin-2-yl)-4-fluorophenyl)-2,4-dimethyloxazole-5-carboxamide]
EC50 [2, 7]: 85 nM | EC50 [4, 8]: 272 nM | EC50 [3, 9]: 80 nM
